Our source for the melting point and Ki values is US20050282819A1, “Heterocyclic substituted indane derivatives and related compounds for the treatment of schizophrenia” (priority 2003, published 2005).

Series [1] addresses T1, dopamine D2 receptor (Homo sapiens, UniProt P14416).
T1 construct: expressed in transfected cells; host or cells: CHO cells (CHO-hD2L), membrane preparation
Put plainly: Dopamine D2 receptor binding ([3H]spiperone, CHO-hD2L membranes). From the text:
(§1) The ability of the compounds of this invention to bind to the dopamine D2 and serotonin 2A (5HT2A) receptors can be determined using conventional radioligand receptor binding assays. All receptors can be heterologously expressed in cell lines and experiments conducted in membrane preparations from the cell lines using procedures outlined below. IC50 concentrations can be determined by nonlinear regression of concentration-dependent reduction in specific binding. The Cheng-Prussoff equation can be used to convert the IC50 to Ki concentrations.
Dopamine D2 Receptor Binding:
[^3H]Spiperone binding to a membrane preparation from CHO-hD2L cells is carried out in 250 μl of 50 mM Tris-HCl buffer containing 100 mM NaCl, 1 mM MgCl2 and 1% DMSO at pH 7.4. Duplicate samples containing (in order of addition) the test compounds, 0.4 nM [^3H]spiperone and approximately 12 μg protein are incubated for 120 minutes at room temperature. Bound radioligand is separated by rapid filtration under reduced pressure through Whatman GF/B glass fiber filters previously treated with 0.3% polyethyleneimine. Radioactivity retained on the filter is determined by liquid scintillation spectrophotometry.
The title compounds of Examples 1-120 were tested using the above assay, in which specific binding determined in the presence of 1 mM haloperidol was 95%.

Series [2] addresses T2, serotonin 2A (5HT2A) receptor (Homo sapiens, UniProt P28223).
T2 construct: expressed in transfected cells; host or cells: Swiss-h5HT2A cells, membranes
Put plainly: Serotonin 2A binding ([3H]ketanserin, Swiss-h5HT2A cell membranes).
Source text: as §1
[^3H]Ketanserin binding to Swiss-h5HT2A cell membranes can be carried out in 250 μl of 50 mM Tris-HCl buffer pH 7.4. Duplicate samples containing (in order of addition) test compounds, 1.0 nM [^3H]ketanserin, and approximately 75 μg protein are incubated for 120 minutes at room temperature. Bound radioligand is separated by rapid filtration under reduced pressure through Whatman GF/B glass fiber filters previously treated with 0.3% polyethyleneimine. Radioactivity retained on the filter is determined by liquid scintillation spectrophotometry.

Each structure is given as a SMILES string.

T2 sequence (P28223 whole entry): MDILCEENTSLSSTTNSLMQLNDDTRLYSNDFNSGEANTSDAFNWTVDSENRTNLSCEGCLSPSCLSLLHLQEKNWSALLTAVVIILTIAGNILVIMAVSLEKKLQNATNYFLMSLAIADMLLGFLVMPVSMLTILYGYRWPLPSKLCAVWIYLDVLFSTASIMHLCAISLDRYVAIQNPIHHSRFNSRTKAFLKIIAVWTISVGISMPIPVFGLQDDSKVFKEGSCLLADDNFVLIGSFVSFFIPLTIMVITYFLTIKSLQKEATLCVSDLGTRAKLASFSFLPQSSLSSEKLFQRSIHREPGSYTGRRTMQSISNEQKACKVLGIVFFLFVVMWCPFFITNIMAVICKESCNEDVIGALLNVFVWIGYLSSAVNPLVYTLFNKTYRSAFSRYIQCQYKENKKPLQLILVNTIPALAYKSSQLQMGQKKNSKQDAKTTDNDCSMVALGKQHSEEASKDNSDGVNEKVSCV
T1 sequence (P14416 whole entry): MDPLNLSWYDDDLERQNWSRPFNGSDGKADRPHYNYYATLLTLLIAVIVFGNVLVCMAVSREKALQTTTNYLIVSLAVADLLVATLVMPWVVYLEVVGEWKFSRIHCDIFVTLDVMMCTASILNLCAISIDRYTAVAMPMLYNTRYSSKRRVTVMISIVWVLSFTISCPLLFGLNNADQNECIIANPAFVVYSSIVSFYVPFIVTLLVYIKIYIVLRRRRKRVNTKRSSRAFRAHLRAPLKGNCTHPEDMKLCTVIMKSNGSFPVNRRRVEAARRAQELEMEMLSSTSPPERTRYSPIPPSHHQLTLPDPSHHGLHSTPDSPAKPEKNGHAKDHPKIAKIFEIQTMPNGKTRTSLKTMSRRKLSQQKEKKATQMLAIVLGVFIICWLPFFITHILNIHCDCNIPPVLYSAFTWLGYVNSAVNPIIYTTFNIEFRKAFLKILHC

`CCN(C(C)=O)C1Cc2cc(CCN3CCN(c4nsc5ccccc45)CC3)ccc2C1(C)C.CS(=O)(=O)O` (stereo not shown) yielded a melting point of 60 to 70 °C. In the case of `CC1(C)C(=O)C(C)(C)c2cc(CCCN3CCN(c4noc5ccccc45)CC3)ccc21.CS(=O)(=O)O`, the melting point is 200 to 203 °C (dec.).

As to `O=C(NC1CCc2ccc(CCN3CCN(c4nsc5ccccc45)CC3)cc21)c1ccno1` (stereo not shown) [Example 58, ISOXAZOLE-5-CARBOXYLIC ACID {6-[2-(4-BENZO[D]ISOTHIAZOL-3-YL-PIPERAZIN-1-YL)-ETHYL]-INDAN-1-YL}-AMIDE], the Ki in series [1] was 3 nM; in series [2], 0.03 nM. For the molecule `CC1(C)c2ccc(C(F)CN3CCN(c4nsc5ccccc45)CC3)cc2C(C)(C)C1O` (stereo not shown) [Example 79, 5-[2-(4-BENZO[D]ISOTHIAZOL-3-YL-PIPERAZIN-1-YL)-1-FLUORO-ETHYL]-1,1,3,3-TETRAMETHYL-INDAN-2-OL], the melting point was in the range of 49 to 54 °C.

On to `CC1(C)C(=O)C(C)(C)c2cc(CCCN3CCN(c4nsc5ccccc45)CC3)ccc21.CS(=O)(=O)O`, for which the melting point fell in the range of 144 to 147 °C.

As to `CC(=O)NC1C(C)(C)c2ccc(CCN3CCN(c4noc5ccccc45)CC3)cc2C1(C)C.CS(=O)(=O)O` (stereo not shown), the melting point fell in the range of 197 to 205 °C.

Molecule `CC(=O)NC1C(C)(C)c2ccc(CCN3CCN(c4nsc5ccccc45)CC3)cc2C1(C)C` (stereo not shown) [Example 109, N-{5-[2-(4-BENZO[D]ISOTHIAZOL-3-YL-PIPERAZIN-1-YL)-ETHYL]-1,1,3,3-TETRAMETHYL-INDAN-2-YL}-ACETAMIDE] registered a melting point of 75 to 80 °C. Consider `CC1(C)c2ccc(C(O)CN3CCN(c4n[nH]c5ccccc45)CC3)cc2C(C)(C)C1O` (stereo not shown) [Example 86, 5-{1-HYDROXY-2-[4-(1H-INDAZOL-3-YL)-PIPERAZIN-1-YL]-ETHYL}-1,1,3,3-TETRAMETHYL-INDAN-2-OL], for which the melting point lay in the range of 104 to 110 °C.

Consider `CC1(C)c2ccc(C(O)CN3CCN(c4nsc5ccccc45)CC3)cc2C(C)(C)C1O` (stereo not shown) [Example 80, 5-[2-(4-BENZO[D]ISOTHIAZOL-3-YL-PIPERAZIN-1-YL)-1-HYDROXY-ETHYL]-1,1,3,3-TETRAMETHYL-INDAN-2-OL], for which the melting point was 88 to 97 °C. Same read-out and setting: for `CC1(C)C(=O)C(C)(C)c2cc(C(F)CN3CCN(c4nsc5ccccc45)CC3)ccc21` (stereo not shown) [Example 78, 5-[2-(4-BENZO[D]ISOTHIAZOL-3-YL-PIPERAZIN-1-YL)-1-FLUORO-ETHYL]-1,1,3,3-TETRAMETHYL-INDAN-2-ONE] the value was 64 to 73 °C; for `CC1(C)C(=O)C(C)(C)c2cc(CCN3CCN(c4nsc5ccccc45)CC3)ccc21` [Example 82, 5-[2-(4-BENZO[D]ISOTHIAZOL-3-YL-PIPERAZIN-1-YL)-ETHYL]-1,1,3,3-TETRAMETHYL-INDAN-2-ONE], 122 to 126 °C.

`CC(=O)NC1Cc2cc(CCN3CCN(c4nsc5ccccc45)CC3)ccc2C1(C)C` (racemic) [Example 115, N-{5-[2-(4-BENZO[D]ISOTHIAZOL-3-YL-PIPERAZIN-1-YL)-ETHYL]-1,1-DIMETHYL-INDAN-2-YL}-ACETAMIDE] showed a melting point of 58 to 68 °C. In turn, `CCOC(CN1CCN(c2noc3ccccc23)CC1)c1ccc2c(c1)C(C)(C)C(=O)C2(C)C.CS(=O)(=O)O` (stereo not shown) gave a melting point of 219 to 222 °C. `CC1(C)C(=O)C(C)(C)c2cc(C(O)CN3CCN(c4nsc5ccccc45)CC3)ccc21` (stereo not shown) [Example 77, 5-[2-(4-BENZO[D]ISOTHIAZOL-3-YL-PIPERAZIN-1-YL)-1-HYDROXYETHYL]-1,1,3,3-TETRAMETHYL-INDAN-2-ONE] gave a melting point of 189 to 191 °C. On the same count and under the same terms, next, `CC(=O)NC1Cc2ccc(CCN3CCN(c4nsc5ccccc45)CC3)cc2C1(C)C` (racemic): 62 to 72 °C; `CC1(C)c2ccc(CCN3CCN(c4nsc5ccccc45)CC3)cc2C(C)(C)C1O` (stereo not shown) [Example 83, 5-[2-(4-BENZO[D]ISOTHIAZOL-3-YL-PIPERAZIN-1-YL)-ETHYL]-1,1,3,3-TETRAMETHYL-INDAN-2-OL]: 47 to 49 °C; `CC1(C)C(=O)C(C)(C)c2cc(CCN3CCN(c4noc5ccccc45)CC3)ccc21.CS(=O)(=O)O`: 259 to 261 °C.

`CC(=O)N(C)C1C(C)(C)c2ccc(CCN3CCN(c4nsc5ccccc45)CC3)cc2C1(C)C.CS(=O)(=O)O` (stereo not shown) showed a melting point of 248 to 250 °C. The same measure, in the same setting: for `CCNC1Cc2cc(CCN3CCN(c4nsc5ccccc45)CC3)ccc2C1(C)C.CS(=O)(=O)O` (stereo not shown) the value was 115 to 125 °C (dec.).

For `CNC1C(C)(C)c2ccc(CCN3CCN(c4nsc5ccccc45)CC3)cc2C1(C)C.CS(=O)(=O)O` (stereo not shown), the melting point is 200 to 203 °C (dec.).

On to `CC(=O)N[C@H]1Cc2ccc(CCN3CCN(c4nsc5ccccc45)CC3)cc2C1` [Example 60, (S)(+)-N-{5-[2-(4-BENZO[D]ISOTHIAZOL-3-YL-PIPERAZIN-1-YL)-ETHYL]-INDAN-2-YL}-ACETAMIDE], for which the Ki in series [1] turned out to be 9 nM; in series [2], 0.09 nM. As for `CCN(C(C)=O)C1Cc2ccc(CCN3CCN(c4nsc5ccccc45)CC3)cc2C1(C)C.CS(=O)(=O)O` (stereo not shown), the melting point is 62 to 72 °C. The same measure, in the same setting: next, `CCNC1Cc2ccc(CCN3CCN(c4nsc5ccccc45)CC3)cc2C1(C)C.CS(=O)(=O)O` (stereo not shown): 125 to 135 °C. As for `O=C(Cc1ccoc1)NC1CCc2ccc(CCN3CCN(c4nsc5ccccc45)CC3)cc21` (stereo not shown) [Example 56, N-{6-[2-(4-BENZO[D]ISOTHIAZOL-3-YL-PIPERAZIN-1-YL)-ETHYL]-INDAN-1-YL}-2-FURAN-3-YL-ACETAMIDE], the Ki in series [1] worked out at 5 nM; in series [2] it was 0.55 nM. In the case of `CNC(CN1CCN(c2nsc3ccccc23)CC1)c1ccc2c(c1)C(C)(C)C(O)C2(C)C` (stereo not shown) [Example 85, 5-[2-(4-BENZO[D]ISOTHIAZOL-3-YL-PIPERAZIN-1-YL)-1-METHYLAMINO-ETHYL]-1,1,3,3-TETRAMETHYL-INDAN-2-OL], the melting point lay within 96 to 101 °C.

As a reminder, the melting point is the temperature of the solid-liquid transition. As usually defined, the Ki is the dissociation constant of the complex between target and ligand, obtained from inhibition or displacement. Read a low Ki as tighter binding.
